Like-named read-outs stand apart in the source and are kept apart here.
Legend:
[1] = tested on: Cullin-3 (CUL3) neddylation; assay: AlphaLISA assay for Cullin-3 (CUL3) neddylation in TF 1 cells; assay type: cell-based; details: Homo sapiens, TF-1, 3 h, 3 hours treatment
Procedure, shortened: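 TF 1 cells in unsupplemented IMDM treated with compound concentrations for 3 h, then lysed. CUL3 neddylation detected by AlphaLISA (biotinylated anti-NEDD8, anti-CUL3 acceptor beads overnight, streptavidin donor beads 1 h); normalized to vehicle (0%) and 1 μM DI-1548 (100%), IC50 from Hill fits.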

[2] = target: DCN1 (DCUND1) protein PONY domain (Homo sapiens (Human), UniProt Q96GG9); assay: TR-FRET assay, DCN1 binding with FAM-labeled probe
Chain of DCN1 (DCUND1) protein PONY domain (Q96GG9 60-248): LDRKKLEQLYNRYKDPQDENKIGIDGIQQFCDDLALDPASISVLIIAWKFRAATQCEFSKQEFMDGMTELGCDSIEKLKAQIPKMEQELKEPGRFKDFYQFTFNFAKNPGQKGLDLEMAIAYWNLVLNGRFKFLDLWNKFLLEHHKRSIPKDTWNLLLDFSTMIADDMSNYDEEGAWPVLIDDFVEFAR
Procedure, shortened: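 TR-FRET ratio (Tb-DCN1 to FAM-probe) read at 1, 5 and 24 hrs after compound addition. Protein: recombinant PONY domain from E. coli, biotinylated and coupled to streptavidin terbium. Either 5 nM DCN1 with 20 nM FAM-probe, or 0.31 nM DCN1 with 100 nM FAM-labelled plus 800 nM unlabelled probe.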

[3] = 24 hr after treatment with compound, read-out: TR FRET IC50 24 hr
[4] = TR FRET IC50 1 hr (nM), 1 hr after treatment with compound
[5] = read-out: TR FRET IC50 1 hr, 1 hr after treatment with compound

SMILES | IC50 [1] [nM] | IC50 [2, 3] [nM] | IC50 [2, 4] [nM] | IC50 [2, 5] [nM]
CCN1C(=O)[C@H](NC(=O)c2cccc(C(F)(F)F)c2)[C@H](c2ccc(F)cc2)c2c(C(=O)N3CCC[C@H]3C#N)nn(-c3cccc(OCCCN4CCOCC4)c3)c21 [Compound I-544] | > 1000 | 1000 to 3000 | 1000 to 3000 | –
CCN1C(=O)[C@@H](NC(=O)[C@@H]2CCc3nccc(=O)n32)[C@@H](C2CC2)c2c(C(=O)N3[C@H](C#N)C[C@H]4C[C@H]43)nn(C3CCOCC3)c21 [Compound I-548] | > 1000 | 1000 to 3000 | 1000 to 3000 | –
CCN1C(=O)[C@@H](NC(=O)c2cccc(C(F)(F)F)c2)[C@@H](C2CC2)c2c(C(=O)N(C)[C@@H](C)C#N)nn(C3CCOCC3)c21 [Compound I-549, (4S,5S)—N—((S)-1-cyanoethyl)-4-cyclopropyl-7-ethyl-N-methyl-6-oxo-1-(tetrahydro-2H-pyran-4-yl)-5-(3-(trifluoromethyl)benzamido)-4,5,6,7-tetrahydro-1H-pyrazolo[3,4-b]pyridine-3-carboxamide] | ≤ 100 | ≤ 200 | 200 to 1000 | –
CCN1C(=O)[C@@H](NC(=O)c2cccc(C(F)(F)F)c2)[C@@H](C2CC2)c2c(C(=O)N(C)[C@@H](C#N)CCN(C)C)nn(C3CCOCC3)c21 [Compound I-550] | ≤ 100 | ≤ 200 | – | ≤ 200
CCN1C(=O)[C@@H](NC(=O)c2cccc(C(F)(F)F)c2)[C@@H](C2CC2)c2c(C(=O)N3CCOC[C@@H]3C#N)nn(C3CCOCC3)c21 [Compound I-551] | 100 to 1000 | 200 to 1000 | 200 to 1000 | –
CCN1C(=O)[C@H](NC(=O)c2cccc(C(F)(F)F)c2)[C@H](C2CC2)c2c(C(=O)N(CC#N)C3CC3)nn(-c3ccccc3)c21 [Compound I-557] | > 1000 | 1000 to 3000 | 1000 to 3000 | –
CCN1C(=O)[C@H](NC(=O)c2cccc(C(F)(F)F)c2)[C@H](c2ccc(F)cc2)c2c(C(=O)N3CCC[C@H]3C#N)nn(C3CC3)c21 [Compound I-558] | > 1000 | 1000 to 3000 | 1000 to 3000 | –
CCN1C(=O)[C@@H](NC(=O)c2cccc(C(F)(F)F)c2)[C@@H](C2CCCC2)c2c(C(=O)N(C)[C@@H](C)C#N)nn(C3CCOCC3)c21 [Compound I-559] | ≤ 100 | ≤ 200 | 200 to 1000 | –
CCN1C(=O)[C@@H](NC(=O)c2cccc(C(F)(F)F)c2)[C@@H](C2CC2)c2c(C(=O)N3CC[C@H]3C#N)nn(-c3ccccc3)c21 [Compound I-561] | ≤ 100 | ≤ 200 | 1000 to 3000 | –
CCN1C(=O)[C@@H](NC(=O)c2ccc3cn[nH]c3c2)[C@@H](C2CC2)c2c(C(=O)N3[C@H](C#N)C[C@H]4C[C@H]43)nn(C3CCOCC3)c21 [Compound I-563] | > 1000 | 1000 to 3000 | 1000 to 3000 | –
CCN1C(=O)[C@@H](NC(=O)c2ccc3ncoc3c2)[C@@H](C2CC2)c2c(C(=O)N3[C@H](C#N)C[C@H]4C[C@H]43)nn(C3CCOCC3)c21 [Compound I-564] | > 1000 | 1000 to 3000 | 1000 to 3000 | –
CCN1C(=O)[C@@H](NC(=O)c2cccc3ncoc23)[C@@H](C2CC2)c2c(C(=O)N3[C@H](C#N)C[C@H]4C[C@H]43)nn(C3CCOCC3)c21 [Compound I-565] | ≤ 100 | ≤ 200 | 200 to 1000 | –
CCN1C(=O)[C@@H](NC(=O)[C@H]2C[C@@H]3CCCC[C@@H]3N2)[C@@H](C2CC2)c2c(C(=O)N3[C@H](C#N)C[C@H]4C[C@H]43)nn(C3CCOCC3)c21 [Compound I-566] | > 1000 | 1000 to 3000 | 1000 to 3000 | –
CCCn1nc(C(=O)N(C)C(C)C#N)c2c1N(CC)C(=O)[C@@H](NC(=O)c1cccc(C(F)(F)F)c1)[C@H]2C1CC1 (stereo partly drawn) [Compound I-569] | ≤ 100 | ≤ 200 | 200 to 1000 | –
CCN1C(=O)[C@@H](NC(=O)c2cccc(C(F)(F)F)c2)[C@@H](c2ccc(F)cc2)c2c(C(=O)N3CC[C@@H]3C#N)nn(-c3ccccc3)c21 [Compound I-570] | 100 to 1000 | 200 to 1000 | 1000 to 3000 | –
CCCn1nc(C(=O)N2CCC[C@H]2C#N)c2c1N(CC)C(=O)[C@H](NC(=O)c1cccc(C(F)(F)F)c1)[C@@H]2C1CC1 [Compound I-571] | > 1000 | 1000 to 3000 | 1000 to 3000 | –
CCCn1nc(C(=O)N(CC#N)C2CC2)c2c1N(CC)C(=O)[C@H](NC(=O)c1cccc(C(F)(F)F)c1)[C@@H]2c1ccc(F)cc1 [Compound I-572] | > 1000 | 1000 to 3000 | 1000 to 3000 | –

SMILES | IC50 [1] [nM] | IC50 [2, 3] [nM] | IC50 [2, 4] [nM] | IC50 [2, 5] [nM]
CCN1C(=O)[C@@H](NC(=O)c2cccc(C(F)(F)F)c2)[C@@H](c2ccc(F)cc2)c2c(CN(C#N)CCCN3CC4(COC4)C3)nn(-c3ccccc3)c21 [Compound I-577] | > 1000 | 200 to 1000 | 200 to 1000 | –
CCN1C(=O)[C@@H](NC(=O)c2cccc(C(F)(F)F)c2)[C@@H](c2ccc(F)cc2)c2c([C@@H](C)N(C#N)CCCN(C)C)nn(-c3ccccc3)c21 [Compound I-578, N-((4S,5S)-3-((R)-1-(N-(3-(dimethylamino)propyl)cyanamido)ethyl)-7-ethyl-4-(4-fluorophenyl)-6-oxo-1-phenyl-4,5,6,7-tetrahydro-1H-pyrazolo[3,4-b]pyridin-5-yl)-3-(trifluoromethyl)benzamide] | 100 to 1000 | 1000 to 3000 | 1000 to 3000 | –
CCN1C(=O)[C@@H](NC(=O)c2cccc(C(F)(F)F)c2)[C@@H](c2ccc(F)cc2)c2c(CN(C#N)CCCN3CCC4(CC3)COC4)nn(-c3ccccc3)c21 [Compound I-579] | ≤ 100 | ≤ 200 | – | ≤ 200
CCN1C(=O)[C@H](NC(=O)c2cccc(C(F)(F)F)c2)[C@H](c2ccc(F)cc2)c2c(C(=O)N3CCC[C@H]3C#N)nn(-c3cccc(OCCCN4CCC5(CC4)COC5)c3)c21 [Compound I-581] | > 1000 | 200 to 1000 | 1000 to 3000 | –
CCN1C(=O)[C@H](NC(=O)c2cccc(C(F)(F)F)c2)[C@H](c2ccc(F)cc2)c2c(C(=O)N3CCC[C@H]3C#N)nn(-c3cccc(OCCN(C)C4COC4)c3)c21 [Compound I-584] | > 1000 | 1000 to 3000 | 1000 to 3000 | –
CCN1C(=O)[C@@H](NC(=O)c2nc(C(F)(F)F)cs2)[C@@H](c2ccc(F)cc2)c2c(C(=O)N3CCC[C@H]3C#N)nn(C3CCOCC3)c21 [Compound I-586] | ≤ 100 | 200 to 1000 | 1000 to 3000 | –
CCN1C(=O)[C@@H](NC(=O)c2cccc(C(F)(F)F)c2)[C@@H](C2CC2)c2c(C(=O)N(C)[C@H](C#N)CCN(C)C)nn(C3CCOCC3)c21 [Compound I-589] | ≤ 100 | ≤ 200 | – | ≤ 200
CCN1C(=O)[C@@H](NC(=O)c2cccc(C(F)(F)F)c2)[C@@H](C2CCC2)c2c(C(=O)N3[C@H](C#N)C[C@H]4C[C@H]43)nn(C3CCOCC3)c21 [Compound I-593] | ≤ 100 | ≤ 200 | – | ≤ 200
C#C[C@@H]1CCCN1C(=O)c1nn(C2CCOCC2)c2c1[C@H](C1CC1)[C@H](NC(=O)c1cccc(C(F)(F)F)c1)C(=O)N2CC [Compound I-594] | > 1000 | 1000 to 3000 | 1000 to 3000 | –
CCN1C(=O)[C@@H](NC(=O)Cc2ccccc2)[C@@H](C2CC2)c2c(C(=O)N3[C@H](C#N)C[C@H]4C[C@H]43)nn(C3CCOCC3)c21 [Compound I-595] | > 1000 | 1000 to 3000 | 1000 to 3000 | –
CCN1C(=O)[C@H](NC(=O)c2cccc(C(F)(F)F)c2)[C@@H](c2ccc(F)cc2)c2c(CN3C(=O)CC[C@H]3C#N)nn(-c3ccccc3)c21 [Compound I-596, N-((4S,5R)-3-(((S)-2-cyano-5-oxopyrrolidin-1-yl)methyl)-7-ethyl-4-(4-fluorophenyl)-6-oxo-1-phenyl-4,5,6,7-tetrahydro-1H-pyrazolo[3,4-b]pyridin-5-yl)-3-(trifluoromethyl)benzamide] | > 1000 | 1000 to 3000 | 1000 to 3000 | –
CCN1C(=O)[C@H](NC(=O)c2cccc(C(F)(F)F)c2)[C@H](c2ccc(F)cc2)c2c([C@@H](C)NC#N)nn(C3CCOCC3)c21 [Compound I-597] | > 1000 | 1000 to 3000 | 1000 to 3000 | –
CCN1C(=O)[C@H](NC(=O)c2cccc(C(F)(F)F)c2)[C@H](C)c2c(C(=O)N3[C@H](C#N)C[C@H]4C[C@H]43)nn(C3CCOCC3)c21 [Compound I-599] | 100 to 1000 | 1000 to 3000 | 1000 to 3000 | –
CCN1C(=O)[C@@H](NC(=O)c2ccc3c(c2)COC3)[C@@H](C2CC2)c2c(C(=O)N3[C@H](C#N)C[C@H]4C[C@H]43)nn(C3CCOCC3)c21 [Compound I-600] | ≤ 100 | ≤ 200 | 200 to 1000 | –
CCN1C(=O)[C@@H](NC(=O)c2ccc3ocnc3c2)[C@@H](C2CC2)c2c(C(=O)N3[C@H](C#N)C[C@H]4C[C@H]43)nn(C3CCOCC3)c21 [Compound I-601] | 100 to 1000 | 200 to 1000 | 1000 to 3000 | –
CCN1C(=O)[C@@H](NC(=O)c2cccc3[nH]ncc23)[C@@H](C2CC2)c2c(C(=O)N3[C@H](C#N)C[C@H]4C[C@H]43)nn(C3CCOCC3)c21 [Compound I-602] | > 1000 | 1000 to 3000 | 1000 to 3000 | –

From patent US20250163057A1, “DCN-1 MODULATING COMPOUNDS AND METHODS OF USE THEREOF” (Cellarity, Inc., priority 2023, published 2025)
